Data published in US20240018198A1, “MU-DIGUETOXIN-DC1A VARIANT POLYPEPTIDES FOR PEST CONTROL” (Vestaron Corporation, priority 2020, published 2024).
linker = not defined here; ERSP = not defined here

Key:
[1] = tested on: Corn earworm (Helicoverpa zea); assay: Screen for mutants improving CEW activity (injection of concentrated supernatants); format: in vivo
Protocol: Mutations of Dc1a were made to screen for recovery of CEW activity. Here, mutants were synthesized and cloned according the methods described above. […] Supernatants were combined and concentrated 10× using centrifugal filtration cassettes (Pall) with a 3000 Da molecular weight cutoff. Concentrates were then injected into Corn earworm (Helicoverpa zea).
Corn earworm (CEW) larvae were injected in their fourth instar. Eggs of H zea were purchased (Benzon Research, 7 Kuhn Dr, Carlisle, PA, 17015) and reared to fourth instar on General Purpose Lepidoptera Diet (Frontier Agricultural Science, Newark, DE). Prior to injection larvae were weighed in order to calculate μmol/g doses. Injections volumes are 1 μL, and were performed with a 30 gauge needle and glass syringe in a hand microapplicator (Burkard, Rickmansworth, Herts, England). The injection site was near the base of one of the hindmost prolegs. Following the injection, larvae are placed in a new enclosure with General Purpose Lepidoptera Diet and their condition (including mortality, sublethal effects, and behavior) is evaluated 24-hours post-injection.

[2] = tested on: Adult houseflies (Musca domestica); assay: Housefly injection assay with plant-expressed proteins (TSP extract); format: in vivo; settings: 2 hours post-injection; 0.5 μL TSP extract per fly; impacted = knock-down and dead
Protocol: Full length DVP-insecticidal protein was purified from the tobacco by using a manual extraction technique. Leaf tissue was obtained via 30 mm diameter punch, from the infiltrated area, rolled up and placed inside a 2 mL conical bottom tube with two, 5/32 inch diameter stainless steel grinding balls, and frozen in liquid nitrogen. The samples were then homogenized using a Troemner-Talboys High Throughput Homogenizer. Next, a 750 μL ice-cold total soluble protein (TSP) extraction solution (sodium phosphate solution 50 mM, EDTA 1 mM, pH 7.0) was added into the tube and vortexed. The microtube was then left to incubate at room temperature for 15 minutes, and then centrifuged at 16,000×g for 15 minutes at 4° C. Next, 100 μL of the resulting supernatant was taken and loaded into pre-Sephadex G-50-packed column in 0.45 μm Millipore MultiScreen filter microtiter plate with empty receiving Costar microtiter plate on bottom. The microtiter plates were then centrifuged at 800 g for 2 minutes at 4° C. The resulting filtrate solution (hereinafter “total soluble protein extract” or “TSP extract”) of the tobacco leaves, was ready for downstream analysis.
Houseflies were injected with the TSP extract obtained from the plant extraction process described above. Prior to injection, adult houseflies (Musca domestica) were immobilized with CO2, and selected for injection based on weight (12-20 mg). […] Impacted scores include knock-down and dead.

Substance | Activity ([1]; Table 9: CEW fourth instar, 10x concentrated supernatants, 1 μL injection, 24 hours) | CEW KD50 ([1]; Table 10: category relative to WT) | % Impacted [2]
C41K/C51E/D38A/L42V: Mu-diguetoxin-Dc1a variant polypeptide; printed sequences differ at position 41 (D in Table 1, K in Table 9) (AKDGDVEGPAGCKKYDVECDSGECCQKQYLWYKWRPLACRKVKSGFFSSKEVCRDV; C41K/ C51E/ D38A/ L42V DVP) | Yes | Reduced (Reduced=>1.5) | 
M1: plant-expressed DVP-insecticidal protein ERSP-UBI-L-DVP-HIS, DVP SEQ ID NO 187 ({ERSP-ubiquitin-linker}-AKDGDVEGPAGCKKYDVECDSGECCQKQYLWSKWRALDCRCLKSGFFSSKCVCRDV-{His tag}; cysteine pairing not given here; reading uncertain) |  |  | 60%
M2: plant-expressed DVP-insecticidal protein ERSP-UBI-L-DVP-HIS, DVP SEQ ID NO 188 ({ERSP-ubiquitin-linker}-AKDGDVEGPAGCKKYDVECDSGECCQKQYLWKKWRALDCRCLKSGFFSSKCVCRDV-{His tag}; cysteine pairing not given here; reading uncertain) |  |  | 60%
M3: plant-expressed DVP-insecticidal protein ERSP-UBI-L-DVP-HIS, DVP SEQ ID NO 189 ({ERSP-ubiquitin-linker}-AKDGDVEGPAGCKKYDVECDSGECCQKQYLWHKWRALDCRCLKSGFFSSKCVCRDV-{His tag}; cysteine pairing not given here; reading uncertain) |  |  | 80%
M4: plant-expressed DVP-insecticidal protein ERSP-UBI-L-DVP-HIS, DVP SEQ ID NO 190 ({ERSP-ubiquitin-linker}-AKDGDVEGPAGCKKYDVECDSGECCQKQYLFSKWRPLDCRCLKSGFFSSKCVCRDV-{His tag}; cysteine pairing not given here; reading uncertain) |  |  | 100%
